In US5534533A, “Carboxylate derivatives exhibiting phospholipase A2 inhibitory activity” (Shionogi & Co., Ltd., priority 1993, dated 1996):

Tests used:
Human secretory PLA2 = molecular target: T1, Human secretory PLA2 (Homo sapiens, UniProt P14555); assay: Secretory PLA2 inhibitory activity (diheptanoyl thio PC substrate, absorbance at 405 nm); type: biochemical; settings: diheptanoyl thio PC 1 mM, Triton X100 0.3 mM, pH 7.3, CaCl2 10 mM, 30 minutes, read-out: s-PLA2 Inhibition IC50
T1 sequence (P14555 21-144): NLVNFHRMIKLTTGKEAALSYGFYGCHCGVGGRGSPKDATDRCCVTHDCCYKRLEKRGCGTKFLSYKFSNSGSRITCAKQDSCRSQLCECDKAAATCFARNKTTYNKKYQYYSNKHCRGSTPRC
Procedure: Secretory PLA2 activity was assayed according to the method described in Penynolds L. J., Hughes L. L., Dennis E. A. et al. Anal. Biochem. 201,190-197 (1992).
Diheptanoyl thiophosphatidylcholine which was prepared according to the procedure described in the literature was used as a substrate. Human secretory PLA2 was used as an enzyme. The diheptanoyl thio PC (1 mM) was reacted with the human secretory PLA2 in the presence of Triton X100 (0.3 mM) and 5,5'-dithiobis-(2-nitrobenzoic acid) (125 μM) in Tris buffer (25 mM, pH 7.3), CaCl2 (10 mM), KCI (100 mM), bovine serum albumin (1.0 mg/ml), and then the change in absorbance at 405 nm at the time of 30 minutes after the reaction was assayed.
Inhibitory activity (%) was estimated by the formula: [(the change in absorbance with the inhibitor and PLA2 ·the change in absorbance with the inhibitor and without PLA2)/(the change in absorbance without the inhibitor and with PLA2 ·the change in absorbance without the inhibitor and PLA2)]×100.
IC50 value (μM) was calculated from graph showing inhibitory values on the vertical axis and log of concentrations of the inhibitor on the horizontal axis.

[1] = molecular target: T2, intracellular PLA2 (cytosolic PLA2, cPLA2) (Homo sapiens, UniProt P47712); assay: Intracellular PLA2 (cPLA2) inhibitory activity (14C-arachidonyl phosphatidylcholine substrate); type: biochemical; settings: 2 μM radiolabelled phosphatidylcholine, 1 μM dioleoylglycerol, 1 mM CaCl2, pH 7.4; read-out: c-PLA2 Inhibition IC50
T2 sequence (P47712 1-749): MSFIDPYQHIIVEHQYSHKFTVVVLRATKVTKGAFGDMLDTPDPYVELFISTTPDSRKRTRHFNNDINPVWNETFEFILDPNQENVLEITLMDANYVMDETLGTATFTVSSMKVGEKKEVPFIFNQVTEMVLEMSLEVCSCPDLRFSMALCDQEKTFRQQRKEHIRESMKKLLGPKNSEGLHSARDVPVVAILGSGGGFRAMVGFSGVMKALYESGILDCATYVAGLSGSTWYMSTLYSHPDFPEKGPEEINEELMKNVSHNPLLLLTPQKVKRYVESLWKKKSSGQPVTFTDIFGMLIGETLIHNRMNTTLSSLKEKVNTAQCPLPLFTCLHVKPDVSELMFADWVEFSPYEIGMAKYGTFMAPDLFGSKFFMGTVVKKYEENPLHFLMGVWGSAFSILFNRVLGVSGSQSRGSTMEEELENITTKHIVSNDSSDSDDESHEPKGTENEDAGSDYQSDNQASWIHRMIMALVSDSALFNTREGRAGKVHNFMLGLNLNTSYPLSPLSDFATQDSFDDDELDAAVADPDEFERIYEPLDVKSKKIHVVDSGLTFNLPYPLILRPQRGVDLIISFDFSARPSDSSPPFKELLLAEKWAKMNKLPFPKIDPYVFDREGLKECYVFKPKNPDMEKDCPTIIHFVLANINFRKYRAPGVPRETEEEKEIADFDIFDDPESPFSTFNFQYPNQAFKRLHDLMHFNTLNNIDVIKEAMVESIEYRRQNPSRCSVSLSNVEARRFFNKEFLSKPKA
Procedure: cPLA2 activity was assayed according to the method described in R. M. Kramer, E. F. Roberts, J. Manetta and J. E. Putnam, J. Biol. Chem., 268 (8), 5268-5272 (1991). Briefly, intracellular PLA2 activity was assayed using supersonic treated […] which contain 1-palmitoyl-2-[^14 C]arachidonyl-sn-glycero-3-phosphocholine and sn-1, 2-dioleoylglycerol at a molar ratio of 2:1. This test mixture contained 1 mM CaCl2, 2 mM dithiothreitol, 150 mM NaCl, 50 mM Hepes, pH 7.4 and 0.1 mg/ml BSA. A substrate is a 2 μM radioisotope labelled phosphatidylcholine ribosome containing 1 μM dioleoylglycerol. IC50 value is calculating in the same manner as in calculating it for secretory PLA2 inhibitory activity.

| SMILES | IC50 (Human secretory PLA2) | IC50 [1] |
| --- | --- | --- |
| COc1c(C)c(OC(=O)c2c(C)c(C)c(OCCCOc3ccc(Cl)cc3Cl)c(C)c2OC)c(C)c(C)c1C(=O)O [Example 24, 4-{4-[3-(2,4-Dichlorophenoxy)propoxy]-2-methoxy-3,5,6-trimethylbenzoyloxy}-2-methoxy-3,5,6-trimethylbenzoic Acid] | 12 µM | 2.8 µM |
| COc1c(C)c(OC(=O)c2c(C)c(C)c(OCCCOc3ccc(Br)cc3Br)c(C)c2OC)c(C)c(C)c1C(=O)O [Example 26, 4-{4-[3-(2,4-Dibromophenoxy)propoxy]-2-methoxy-3,5,6-trimethylbenzoyloxy}-2-methoxy-3,5,6-trimethylbenzoic Acid] | 15 µM | 2.6 µM |
| COc1c(C)c(OC(=O)c2c(C)c(C)c(OCCCOc3cc4c(cc3C(c3ccccc3)c3ccccc3)OCO4)c(C)c2OC)c(C)c(C)c1C(=O)O [Example 27, 4-{4-[3-(6-Benzhydrylbenzo[1, 3]dioxol-5-yloxy)-propoxy]-2-methoxy-3,5,6-trimethylbenzoyloxy}-2-methoxy-3,5,6-trimethylbenzoic Acid] | 13 µM | 1.5 µM |
| COc1c(C)c(OC(=O)c2c(C)c(C)c(OCCCOc3ccc4c(c3)OCO4)c(C)c2OC)c(C)c(C)c1C(=O)O [Example 28, 4-{4-[3-(Benzo[1, 3]dioxol-5-yloxy)propoxy]-2-methoxy-3,5,6-trimethylbenzoyloxy}-2-methoxy-3,5,6-trimethylbenzoic Acid] | 6.9 µM | 10 µM |
| CCc1ccc(OCCCOc2c(C)c(C)c(C(=O)Oc3c(C)c(C)c(C(=O)O)c(OC)c3C)c(OC)c2C)cc1 [Example 30, 4-{4-[3-(4-Ethylphenoxy)propoxy]-2-methoxy-3,5,6-trimethylbenzoyloxy}-2-methoxy-3,5,6-trimethylbenzoic Acid] | 16 µM | 5.4 µM |
| COc1c(C)c(OC(=O)c2c(C)c(C)c(OCCCOc3ccc(C(C)=O)cc3)c(C)c2OC)c(C)c(C)c1C(=O)O [Example 31, 4-{4-[3-(4-Acetylphenoxy)propoxy]-2-methoxy-3,5,6-trimethylbenzoyloxy}-2-methoxy-3,5,6-trimethylbenzoic Acid] | 7 µM | 24 µM |
| COc1c(C)c(OC(=O)c2c(C)c(C)c(OCCCOc3ccc(C(=O)O)cc3)c(C)c2OC)c(C)c(C)c1C(=O)O [Example 32, 4-{4-[3-(4-Carboxyphenoxy)propoxy]-2-methoxy-3,5,6-trimethylbenzoyloxy}-2-methoxy-3,5,6-trimethylbenzoic Acid] | 10 µM | 38 µM |
| COc1c(C)c(OC(=O)c2c(C)c(C)c(OCCCOc3ccccc3F)c(C)c2OC)c(C)c(C)c1C(=O)O [Example 33, 4-{4-[3-(2-Fluorophenoxy)propoxy]-2-methoxy-3,5,6-trimethylbenzoyloxy}-2-methoxy-3,5,6-trimethylbenzoic Acid] | 26 µM | 12 µM |
| COc1c(C)c(OC(=O)c2c(C)c(C)c(OCCCOc3cccc(F)c3)c(C)c2OC)c(C)c(C)c1C(=O)O [Example 34, 4-{4-[3-(3-Fluorophenoxy)propoxy]-2-methoxy-3,5,6-trimethylbenzoyloxy}-2-methoxy-3,5,6-trimethylbenzoic Acid] | 50 µM | 9.7 µM |
| COc1c(C)c(OC(=O)c2c(C)c(C)c(OCCCS(=O)(=O)c3ccc(F)cc3)c(C)c2OC)c(C)c(C)c1C(=O)O [Example 36, 4-{4-[3-(4-Fluorobenzenesulfonyl)propoxy]-2-methoxy-3,5,6-trimethylbenzoyloxy}-2-methoxy-3,5,6-trimethylbenzoic Acid] | 50 µM | > 50 µM |
| COc1c(C)c(OC(=O)c2c(C)c(C)c(OCCCOc3cccc(F)c3F)c(C)c2OC)c(C)c(C)c1C(=O)O [Example 37, 4-{4-[3-(2,3-Difluorophenoxy)propoxy]-2-methoxy-3,5,6-trimethylbenzoyloxy}-2-methoxy-3,5,6-trimethylbenzoic Acid] | 12 µM | 6.6 µM |
| COc1c(C)c(OC(=O)c2c(C)c(C)c(OCCCOc3c(F)cccc3F)c(C)c2OC)c(C)c(C)c1C(=O)O [Example 38, 4-{4-[3-(2,6-Difluorophenoxy)propoxy]-2-methoxy-3,5,6-trimethylbenzoyloxy}-2-methoxy-3,5,6-trimethylbenzoic Acid] | 6.7 µM | 7.1 µM |
| COc1ccccc1OCCCOc1c(C)c(C)c(C(=O)Oc2c(C)c(C)c(C(=O)O)c(OC)c2C)c(OC)c1C [Example 39, 4-{4-[3-(2-Methoxyphenoxy)propoxy]-2-methoxy-3,5,6-trimethylbenzoyloxy}-2-methoxy-3,5,6-trimethylbenzoic Acid] | 8.9 µM | 12 µM |
| COc1cccc(OC)c1OCCCOc1c(C)c(C)c(C(=O)Oc2c(C)c(C)c(C(=O)O)c(OC)c2C)c(OC)c1C [Example 40, 4-{4-[3-(2,6-Dimethoxyphenoxy)propoxy]-2-methoxy-3,5,6-trimethylbenzoyloxy}-2-methoxy-3,5,6-trimethylbenzoic Acid] | 6.1 µM | 13 µM |
| COc1cc(OC)cc(OCCCOc2c(C)c(C)c(C(=O)Oc3c(C)c(C)c(C(=O)O)c(OC)c3C)c(OC)c2C)c1 [Example 41, 4-{4-[3-(3,5-Dimethoxyphenoxy)propoxy]-2-methoxy-3,5,6-trimethylbenzoyloxy}-2-methoxy-3,5,6-trimethylbenzoic Acid] | 7 µM | 5.9 µM |
| COc1c(C)c(OC(=O)c2c(C)c(C)c(OCCCOc3ccc(C(N)=O)cc3)c(C)c2OC)c(C)c(C)c1C(=O)O [Example 42, 4-{4-[3-(4-Carbamoylphenoxy)propoxy]-2-methoxy-3,5,6-trimethylbenzoyloxy}-2-methoxy-3,5,6-trimethylbenzoic Acid] | 5 µM | 31 µM |
| COC(=O)c1ccc(OCCCOc2c(C)c(C)c(C(=O)Oc3c(C)c(C)c(C(=O)O)c(OC)c3C)c(OC)c2C)cc1 [Example 43, 4-{4-[3-(4-Methoxycarbonylphenoxy)propoxy]-2-methoxy-3,5,6-trimethylbenzoyloxy}-2-methoxy-3,5,6 trimethylbenzoic Acid] | 5.1 µM | 14 µM |
| COc1c(C)c(OC(=O)c2c(C)c(C)c(OCCCOc3ccc(F)cc3)c(C)c2OC)c(C)c(C)c1C(N)=O [Example 44, 4-{4-[3-(4-Fluorophenoxy)propoxy]-2-methoxy-3,5,6-trimethylbenzoyloxy}-2-methoxy-3,5,6-trimethylbenzamide] | 0.94 µM | 9.3 µM |
| COc1c(C)c(OC(=O)c2c(C)c(C)c(OCCCOc3ccc(C(N)=O)cc3)c(C)c2OC)c(C)c(C)c1C(N)=O [Example 45, 4-{4-[3-(4-Carbamoylphenoxy)propoxy]-2-methoxy-3,5,6-trimethylbenzoyloxy}-2-methoxy-3,5,6-trimethylbenzamide] | 0.29 µM | > 50 µM |
| COC(=O)c1ccc(OCCCOc2c(C)c(C)c(C(=O)Oc3c(C)c(C)c(C(N)=O)c(OC)c3C)c(OC)c2C)cc1 [Example 46, 4-{4-[3-(4-Methoxycarbonylphenoxy)propoxy]-2methoxy-3,5,6-trimethylbenzoyloxy}-2-methoxy-3,5,6 trimethylbenzamide] | 0.74 µM | > 50 µM |
| COc1c(C)c(OC(=O)c2c(C)c(C)c(OCCCOc3ccc(C(=O)O)cc3)c(C)c2OC)c(C)c(C)c1C(N)=O [Example 47, 4-{4-[3-(4-Carboxyphenoxy)propoxy]-2-methoxy-3,5,6-trimethylbenzoyloxy}-2-methoxy-3,5,6-trimethylbenzamide] | 0.22 µM | 22 µM |
